Non-standard residues stand in square brackets, D forms with d. Residues, ends and D or L forms follow the SMILES beside them.
Experiments:
Aβ1-40 = Aβ1-40 (Homo sapiens, UniProt P05067); assay: In vitro amyloid formation assay, thioflavine T fluorescence; type: biochemical; settings: Aβ incubated with peptide, ThT fluorescence, FIG. 5a
[1] = Peptide stability in rat plasma after i.v. bolus injection (radio-iodinated peptide, TCA precipitation, paper chromatography); type: in vivo; settings: 15 minutes after i.v. injection
Method: d) Chirality changes. Replacement of the natural L-residue by the D-enantiomers dramatically increases resistance to proteolytic degradation. […] Indeed, approximately 90% of iAβ1 was degraded within minutes after intravenous injection. […] For detection, the peptide was radio-iodinated using standard procedures. Peptide stability was evaluated after i.v bolus injection in rats by precipitation with trichloroacetic acid. Quantitation of the intact peptide was also done by paper chromatography. […] In addition to the latter, D-residue are used after each proline amino acid, since it has been reported that a frequent endopeptidase cleavage site is after this residue by an enzyme known as prolylendopeptidase.

[2] = In vitro assay of peptide stability in fresh human plasma; type: in vitro ADME
Method: One of the major drawbacks for the use of peptides as drugs is their rapid proteolytic degradation in biological fluids and tissues. In in vitro experiments, iAβ5, (Seq LPFFD- also depicted as Leu Pro Phe Phe Asp herein) degraded very quickly in vitro after incubation with fresh human plasma. […] Since it was not possible to identify any metabolic fragments as a result of the proteolytic digestion, it seems likely that the degradation is mainly done by unspecific exopeptidases. This conclusion is supported by the finding that protection of amino- and carboxy-terminus of the peptide by acetylation and amidation, respectively, (to form Ac-iAβ5-Am—also depicted as Ac-Leu Pro Phe Phe Asp-Am herein) dramatically increases the stability of the peptide in vitro.
In vitro assays of peptide stability. Peptides were prepared as a 1 μg/μl solution in water. 20 μl of the peptide solution was diluted in 80 μl of fresh human plasma. The solution was incubated at 37° C. for different time periods and the reaction was stopped by adding a complete cocktail of protease inhibitors. The bulk of the plasma proteins (none of the peptide) were precipitated in cold methanol (mix/MeOH, 4/5, v/v) for one hour at −20° C. […] The peak area corresponding to the intact peptide was measured and compared with an equivalent sample incubated without plasma.

Aβ1-42 amyloid deposits = Aβ1-42 amyloid deposits (Homo sapiens, UniProt P05067); settings: cited from earlier work
Aβ1-42 amyloid deposits, sequence (P05067 672-713): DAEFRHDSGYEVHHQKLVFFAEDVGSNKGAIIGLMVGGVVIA

Aβ = settings: prior art; cited from earlier work
[3] = system: neuronal death induced by oligomeric Aβ; settings: cell culture, prior art; cited from earlier work
[4] = In vitro metabolism in human liver microsomes; type: in vitro ADME; settings: one hour of incubation at 37°, read-out: peptide remained intact
[5] = In vitro metabolism in rat liver microsomes; type: in vitro ADME; settings: one hour of incubation at 37°, read-out: peptide remained intact
PrP = PrP (Homo sapiens, UniProt P04156); settings: cited from earlier work

Aβ1-40, sequence (P05067 672-711): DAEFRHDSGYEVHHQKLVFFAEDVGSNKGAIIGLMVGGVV

With “VHVSEEGTEPA [CP1, unrelated control peptide]” the “activity in inhibiting amyloid formation (fibrillogenesis)” value (Aβ1-40) was “no effect on fibrillogenesis or slightly increased amyloid formation”.

In the case of `CC[C@@H](C)[C@@H](NC(=O)[C@H]1CCCN1C(=O)[C@H](NC(=O)[C@H]1CCCN1C(=O)[C@@H](Cc1ccc(O)cc1)NC(=O)[C@@H](Cc1ccccc1)NC(=O)[C@H]1CCCN1C(=O)[C@@H](CC(C)C)NC(=O)[C@@H](CC(=O)O)NC(=O)[C@H](N)CCCNC(=N)N)C(C)C)C(=O)N[C@H](CC(=O)O)C(=O)O` (H-[dR][dD][dL][dP][dF][dY][dP][dV][dP][dI][dD]-OH; N-terminus and C-terminus assumed), the “degradation in the plasma after injection” value [1] is reported as “virtually no degradation”.

In the case of `CC(C)C[C@H](N)C(=O)N1CCC[C@H]1C(=O)N[C@@H](Cc1ccccc1)C(=O)N[C@@H](Cc1ccccc1)C(=O)N[C@@H](CC(=O)O)C(=O)O` [iAβ5, Leu Pro Phe Phe Asp] (H-LPFFD-OH), the half-life at 0.2 μg/μl ([2]; fresh human plasma, 37° C., FIG. 4a, read-out: time in which fifty percent of the peptide disappeared in plasma) is given as roughly 5 min, the “cerebral Aβ accumulation and deposition of fibrillar amyloid-like lesions” value (Aβ1-42 amyloid deposits; co-injection with Aβ1-42, rat brain, prior art) is given as “decreased cerebral Aβ accumulation and completely blocked the deposition of fibrillar amyloid-like lesions” and the “inhibition of amyloid plaque formation” value (Aβ1-42 amyloid deposits; co-injection with Aβ1-42, rat) is given as 50%. The “dissolution of preformed deposits” value (Aβ1-42 amyloid deposits; i.c. injection in animals already containing amyloid plaques) was 67%, the “inhibition of amyloid formation and dissolution of preformed fibrils in vitro” value (Aβ) was “inhibit peptide conformational changes that result in amyloid formation and also dissolved preformed fibrils” and the “prevention of neuronal death” value [3] was “capable of preventing the neuronal death”.

With `CC(=O)N[C@@H](CC(C)C)C(=O)N1CCC[C@H]1C(=O)N[C@@H](Cc1ccccc1)C(=O)N[C@@H](Cc1ccccc1)C(=O)N[C@@H](CC(=O)O)C(N)=O` [Ac-iAβ5-Am, Ac-Leu Pro Phe Phe Asp-Am] (Ac-LPFFD-NH2) the “period the peptide remained stable in human plasma” value ([2]; human plasma, FIG. 4b) was “more than 24 hours”, the remaining at 1 h [4] was 81.5% and the remaining at 1 h [5] was 76.3%.

For “Asp Ala Pro Ala Ala Pro Ala Gly Pro ala Val Pro Val [iPrP13]”, the “inhibitory activity on PrP conformational change among a set of β-sheet breaker peptides” value (PrP) is given as “showed the greatest activity”.

In the case of RDLPFYPVPID [iAβ1], the “inhibition of amyloid formation and dissolution of preformed fibrils in vitro” value (Aβ) is listed as “inhibit peptide conformational changes that result in amyloid formation and also dissolved preformed fibrils”.

For “Aβ18-21: short Aβ fragment (VFFA; Amyloid-beta protein 42; UniProt P05067 689-692, looked up, fragment)”, the “activity in inhibiting amyloid formation (fibrillogenesis)” value (Aβ1-40) was “no effect on fibrillogenesis or slightly increased amyloid formation”.

For “GYLTVAAVFRG [CP2, unrelated control peptide]”, the “activity in inhibiting amyloid formation (fibrillogenesis)” value (Aβ1-40) was “no effect on fibrillogenesis or slightly increased amyloid formation”.

For “ISEVKMDAEF [CP10, unrelated control peptide]”, the “activity in inhibiting amyloid formation (fibrillogenesis)” value (Aβ1-40) was “no effect on fibrillogenesis or slightly increased amyloid formation”.
